Source: patent publication US11197911B2, “Peptidylic inhibitors targeting C9ORF72 hexanucleotide repeat-mediated neurodegeneration” (The Chinese University of Hong Kong, priority 2016, dated 2021)
“Also recorded” adds a separate entry of the source. No end group written: not given here.

How the values were obtained:
UAS-(GGGGCC)36 flies [1] = test: External eye assay; assay type: in vivo, Drosophila; details: GMR-Gal4/UAS-(GGGGCC)36 flies; 100 μM feeding; 1 day-old adults
Method: (§1) Flies were raised at 25° C. on cornmeal medium supplemented with dry yeast. For […], third instar larvae were feed with 100 μM of TAT-P3L or TAT-P3LS1 dissolved in 2% sucrose solution for 2 h and then continued to culture in standard fly food. Eye images of 1 day-old adult of UAS-(GGGGCC)3 or UAS-(GGGGCC)36 flies were captured using a SPOT Insight CCD camera (Diagnostic instruments Inc.) on an Olympus SZX-12 stereomicroscope.

UAS-(GGGGCC)3 flies [2] = details: 50 μM in food
Method: For lifespan and climbing ability assay, flies of 2dpe were feed with food containing different drug combination including vehicle control (ethanol), Mifepristone (RU486, 200 μM), RU486 (200 μM) plus TAT-P3L (50 μM), and RU486 (200 μM) plus TAT-P3LS1 (50 μM). Mifepristone (RU486, 200 μM) was used to induce transgene expression. For climbing ability assay, 10-15 flies were allocated to each experimental vials (total of 90-100 flies per condition) and monitored every 5 days. Fly climbing ability was analyzed by negative geotaxis. Groups of ∞15 flies were anesthetized and placed in a vertical plastic column. After 1 h recovery, flies were banged to the bottom, and then scored for climbing ability as the percentage of flies remaining at the bottom (<2 cm) at 25 s. Three trials were performed at 3 min intervals in each experiment.

nucleophosmin (B23) = test: Immunostaining, nucleolar stress marker B23 localization; assay type: cell-based; details: (GGGGCC)66-expressing SK-N-MC cells; 10 μM; 48 h
Method: (§2) SK-N-MC cells were seeded and grown on glass coverslips at a density of 0.8×10^5 in 24-well plate. Forty eight hours after treatment, cells were fixed with 4% paraformaldehyde followed by three times wash with 1×PBS. Cells were then permeabilized in 0.5% Triton X-100 for 10 min at room temperature followed by three washes with 1×PBS. After washing step, cells were blocked with 5% BSA in 1×PBS for 1 h at room temperature. The NCL (1:500, Abcam) or B23 (1:500, Abcam) antibody was then applied with 5% BSA (1:500) 2 h at room temperature. Once the primary antibody was removed, Cells were washed three times with 1×PBS and incubated with an anti-rabbit Cy3 or an anti-mouse Cy3 secondary antibody (1:400, Jackson Labs) 1 h at room temperature. After washing with 1×PBS, nuclei were counterstained with Hoechst 33342 (1 μg/ml, Thermo Fisher Scientific) prior to mounting coverslips. Images were obtained on an OLYMPUS FV1000 IX81-TIRF confocal microscope. A single focal plan was obtained through the centre of the nucleus. The method of quantification of NCL and B23 nuclear area fold change was described previously^7. In order to quantify both dispersed NCL and dense nucleolar NCL, a threshold setting in ImageJ ranging from 25-100 was used to measure the pixel area of NCL relative to the area of the nucleus outlined by the Hoechst staining. […]

UAS-(GGGGCC)36 flies [3] = test: Climbing ability assay; assay type: in vivo, Drosophila; details: elavGS flies, RU486 200 μM plus peptide 50 μM in food, 10, 15, 20 and 25 dpe
Method: Fly climbing ability was analyzed by negative geotaxis.

UAS-(GGGGCC)36 flies [4] = test: Lifespan assay; assay type: in vivo, Drosophila; details: elavGS flies, RU486 200 μM plus peptide 50 μM in food
NCL = test: Immunostaining, nucleolar stress marker NCL localization; assay type: cell-based; details: (GGGGCC)66-expressing SK-N-MC cells; 10 μM; 48 h
Method: as §2

[5] = system: expanded CAG repeat-mediated nucleolar stress; details: polyQ disease; inventors' previous work (ref. 20); cited from earlier work
[6] = system: (GGGGCC)66-expressing SK-N-MC cells; test: LDH cytotoxicity assay, (GGGGCC)66-induced cell death; assay type: cell-based; details: for suppression of (GGGGCC)66-induced cell death compared with P3L (structure-activity relationship study): 10 μM, single alanine substitution mutants; for effect on (GGGGCC)66-induced cell death (LDH enzyme activity in medium): 0.1, 1, 10 and 20 μM peptide
Method: SK-N-MC cells were kindly provided by Prof. Dobrila D. Rudnicki (Johns Hopkins University, USA). […] Leonard Petrucelli (Mayo Clinic, USA).
For IC50 detection, various amount of TAT-P3L, 0.1, 0.5, 1, 10, 50, 100, 500, 1,000 and 10,000 nM were added to individual culture wells after transfection. Forty eight hours after treatment, LDH enzyme activity in the cell culture medium was measured as described before. Experimental groups were normalized to the untransfected control. After normalization, data were analyzed using the dose response-inhibition curve (nonlinear regression-variable slope) to determine the IC50 value (Prism6 software, GraphPad Software, Inc.).

[7] = system: GGGGCC RNA foci in (GGGGCC)66-expressing SK-N-MC cells; test: RNA fluorescence in situ hybridization, GGGGCC RNA foci formation; assay type: cell-based; details: 10 μM, 48 h
Method: In situ hybridization was carried out to evaluate the effect of TAT-P3L on GGGGCC RNA foci formation in […]-expressing SK-N-MC cells. In brief, 0.8×10^5 SK-N-MC cells were seeded and grown on glass coverslips in 24-well plate. Ten micromolar of TAT-P3L or TAT-P3LS1 were added immediately after transfection of 1 μg of pAg3-(GGGGCC)2/66 plasmid. After 48 h, cells were fixed with 4% paraformaldehyde for 10 min and permeabilized with 0.5% Triton-X 100 for 5 min at room temperature. Cells were then washed with phosphate buffered saline treated with diethylpyrocarbonate (DEP-CPBS) three times, and hybridized with 40 nM denatured TYE563-labeled LNA probe (5′-TYE563-CCCGGCCCCGGCCCC-3′; SEQ ID NO:13; Exiqon, Inc) in hybridization buffer (50% formamide, 10% dextran sulfate, 2× saline-sodium citrate buffer (SSC), 50 mM sodium phosphate buffer) 6 h at 65° C. After washing once with 0.1% Tween-20/2×SSC for 5 min at room temperature, cell were further washed with 0.1×SSC 3 times at 65° C. for 10 min. Nuclei were counterstained with Hoechst 33342 (1 μg/ml, Thermo Fisher Scientific) prior to mounting coverslips. Images were obtained on an OLYMPUS FV1000 IX81-TIRF confocal microscope.

UAS-(GGGGCC)3 flies [8] = test: Lifespan assay, control flies; assay type: in vivo, Drosophila; details: 50 μM in food
UAS-(GGGGCC)3 flies [9] = test: External eye assay, control flies; assay type: in vivo, Drosophila; details: GMR-Gal4/UAS-(GGGGCC)3 flies; 100 μM feeding
Method: as §1

AEIRLVSKDGKSKGIAYIEFK [P3L]
eye degeneration (scar formation in eye) (UAS-(GGGGCC)36 flies [1]): significantly suppressed neurodegeneration
climbing ability of control flies (UAS-(GGGGCC)3 flies [2]): not found to be affecting the climbing ability
subcellular localization of B23 (nucleophosmin (B23)): restored the subcellular localization
climbing defect (UAS-(GGGGCC)36 flies [3]): rescued locomotor deficit
lifespan (in words) (UAS-(GGGGCC)36 flies [4]): extended lifespan
subcellular localization of NCL (NCL): restored the subcellular localization

P3: peptide DGKSKGIAYIEFK (SEQ ID NO:2), derived from RRM2 of NCL, inventors' previous work (synthetic peptide construct P3)
inhibition of expanded CAG repeat-mediated nucleolar stress and neurodegeneration [5]: specifically inhibited expanded CAG repeat-mediated nucleolar stress

TAT-P3LMT1: TAT-P3L mutant carrying a single alanine substitution; mutant part SEQ ID NO:14 (YGRKKRRQRRRAAIRLVSKDGKSKGIAYIEFK; synthetic peptide construct TAT; synthetic peptide mutant PL3MT1)
suppression of (GGGGCC)66-induced cell death compared with P3L (structure-activity relationship study) ([6]; 48 h): same suppression effect as the P3L peptide

TAT-P3LMT19: TAT-P3L mutant carrying a single alanine substitution; mutant part SEQ ID NO:32 (YGRKKRRQRRRAEIRLVSKDGKSKGIAYIEFA; synthetic peptide construct TAT; synthetic peptide mutant PL3MT19)
suppression of (GGGGCC)66-induced cell death compared with P3L (structure-activity relationship study) ([6]; 48 h): same suppression effect as the P3L peptide

TAT-RRM1-P1: TAT fusion peptide YGRKKRRQRRRTGTNRKFGYVD (SEQ ID NO: 7), derived from RRM1 of NCL (synthetic peptide construct TAT-RRM1-P1)
effect on (GGGGCC)66-induced cell death (LDH enzyme activity in medium) ([6]; 48 h): did not demonstrate any modifying effect; also recorded: didn't alter

TAT-RRM4-P1: TAT fusion peptide YGRKKRRQRRRRARIVTDRETGSSKGFGFVD (SEQ ID NO: 10), derived from RRM4 of NCL (synthetic peptide construct TAT-RRM4-P1)
effect on (GGGGCC)66-induced cell death (LDH enzyme activity in medium) ([6]; 48 h): did not demonstrate any modifying effect; also recorded: did not alter

YGRKKRRQRRRAEIRLVSKDGKSKGIAYIEFK [TAT-P3L]
IC50 ([6]; 48 h, concentration reducing LDH enzyme activity by 50% vs untreated control, read-out: IC50 in suppressing (GGGGCC)66-induced cell death): 104 ± 24.6 nM
RNA foci-like structure formation in control group [7]: no RNA foci-like structure formed
lifespan of control flies (UAS-(GGGGCC)3 flies [8]): did not alter the lifespan
eye defect in control flies (UAS-(GGGGCC)3 flies [9]): did not cause any observable eye defect

YGRKKRRQRRRGGEDIKSRVEAASILYFIKKK [TAT-P3LS1, reference compound]
RNA foci-like structure formation in control group [7]: no RNA foci-like structure formed

YGRKKRRQRRRTFIKVPQNQNGKSKGYAF [TAT-RRM3-P1]
cytotoxicity elicited by the peptide by itself (LDH) ([6]; when the dose was raised): elicited cytotoxicity
